The values that follow come from article PMC10301603, “Potent and Selective Benzothiazole-Based Antimitotics with Improved Water Solubility: Design, Synthesis, and Evaluation as Novel Anticancer Agents” (Pharmaceutics, 2023).

Data set [1] in a line: Aqueous solubility, shake-flask method. Type of data set: physicochemical. The following applies: shaking flask, buffered media at pH 7.0, mean of three. In outline: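 Shake-flask: 5 mg compound in 500 µL pH 7.0 buffer stirred 72 h at room temperature, then filtered to remove insoluble material. Saturated filtrate quantified by UV absorbance at λmax against a per-compound calibration line; value is the mean of three independent measurements.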

The next data set has as its system HeLa cells. The data set is described as follows: Cell growth inhibition assay (MTT). Type of data set: cell-based, human. The following applies: 72 h after drug exposure. An outline of the steps:
(§1)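 Following overnight (24 h) attachment, cultures received serial compound concentrations from 10^−10 to 10^−2 M and were incubated 72 h before MTT viability measurement. Where efflux-pump sensitivity was tested, IC50 was redetermined with 10 µM verapamil present.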

Another data set relates to LNCaP cells. The data set is described as follows: Cell growth inhibition assay (MTT). Type of data set: cell-based, human. The following applies: 72 h after drug exposure. An outline of the steps:
as §1

The next data set has as its system PC-3 cells. The data set is described as follows: Cell growth inhibition assay (MTT). The data set is classed as cell-based, human. In outline: as §1
For the next data set, the system named is T98G cells. The data set is described as follows: Cell growth inhibition assay (MTT). The data set is classed as cell-based, human. The conditions noted are these: 72 h after drug exposure. An outline of the steps:
as §1

The subject of data set [2] is U87MG cells. The data set is described as follows: Cell growth inhibition assay (MTT). The following applies: for IC50: MTT, 72 h after drug exposure. Type of data set: cell-based, human. An outline of the steps:
as §1

For data set [3], the system named is U87MG cells. The data set is described as follows: Lactate dehydrogenase (LDH) release assay. The conditions noted are these: 72 h. Type of data set: cell-based, human. The method, then:
CytoTox96® Non-Radioactive Cytotoxicity Assay kit (Promega, Madison, WI, USA) was used to measure the release of lactate dehydrogenase (LDH) by following the previously described method in [46]. Briefly, U87 MG or HEK-293 cells were incubated for 72 h with compounds 8, 9, or 14 at concentrations ranging from 10^−9 to 10^−6 M for U87 MG cells, and from 10^−4 to 10^−3 M for HEK-293 cells. After treatment, the supernatants were collected, and the intact attached cells were lysed using 0.1% (w/v) Triton X-100 in (0.9%) NaCl solution. Both the LDH released to culture media, as well as the LDH content within the cells, were determined spectrophotometrically at 490 nm on a 96-well plate reader (Infinite 200, Tecan, Salzburg, Austria) by following the manufacturer’s instructions. LDH release was defined by the ratio of LDH released/total LDH present in the cells, with the total LDH being 100%. All the samples were run in quadruplicate.

Another data set deals with tumor cell lines. The data set is described as follows: Cell growth inhibition assay (MTT), summary statements over several cell lines. The data set is classed as cell-based. The conditions noted are these: glioblastoma cell lines; read-out: antiproliferative IC50. How it is done:
Cells were plated in 96-well plates (100 µL/well) at the following concentrations: 30,000 cells/mL (HepG2, U87 MG, T98G, C6, LNCaP, PC3, and HT-29 cells) or 15,000 cells/mL (HeLa and MCF-7 cells). Previous experiments were performed to choose the optimal cell concentration (70–80% confluence) and avoid the formation of cell aggregates. Cells were incubated in complete DMEM or RPMI 1640 medium (see above) at 37 °C and 5% CO2 atmosphere for 24 h to allow for cell attachment to the plate. Then, every compound was added (10 µL/well) to a final concentration of 10 µM. Non-treated cells were used as negative controls. The antiproliferative activity of compounds was measured 72 h after the treatments using the MTT reagent (3-[4,5-dimethylthiazol-2-yl]-2,5-diphenyltetrazolium bromide), (MTT Thiazolyl Blue Tetrazolium Bromide, Sigma-Aldrich, St. Louis, MO, USA) dissolved in PBS at 5 mg/mL. Compounds showing antiproliferative effects at 10 µM were selected to determine their IC50 value. For that purpose, compounds were used at different concentrations ranging from 10^−10 to 10^−2 M. Measurements were performed in triplicate, and each experiment was repeated three times. The IC50 value was determined for every compound using Origin software (OriginLab, Washington, USA). To study the sensitivity to MDR efflux pumps of compounds, the IC50 values were determined by following the same procedure but in the presence of verapamil (final concentration of 10 µM).

The structures appear in SMILES notation. ≈ marks a conversion by molar mass, not a printed value.

With `COc1ccc2nc(N(C=O)Cc3cccnc3)sc2c1` [Compound 14, N-(6-methoxybenzo[d]thiazol-2-yl)-N-(pyridin-3-ylmethyl)formamide], in data set [1] (pH 7.0 buffer, pH 7, aqueous buffer, thermodynamic from solid), the concentration in solution (solubility at 72 h) came to 95 µg/mL (≈ 317 µM). For the same compound, the IC50 (as a rule, the concentration at which inhibition is half-maximal) with HeLa cells (Homo sapiens, HeLa) is 107 nM; in the data set with LNCaP cells (Homo sapiens, LNCaP) it was 93 nM; in the data set on PC-3 cells (Homo sapiens, PC-3, 72 h after drug exposure), 195 nM; with T98G cells (Homo sapiens, T98G), 75 nM; in the data set on U87MG cells [2] (Homo sapiens, U-87 MG), 37 nM; in the data set on tumor cell lines, 37 to 75 nM. In addition, the LDH release result is reported as “around 10%” in the data set with U87MG cells [3] (1 nM) and approximately 20% in the data set on U87MG cells [3] (10 nM). Moreover, the “cell death (LDH release)” value in the data set with U87MG cells [3] (above 100 nM) is reported as 100%.

Regarding `CCNC(=O)N(Cc1cccnc1)c1nc2ccc(OC)cc2s1` [Compound 8], the Solubility (usually the dissolved amount per volume that the medium holds) in data set [1] is given as 102 µg/mL (≈ 298 µM). For the same compound, the IC50 in the data set on HeLa cells stood at 85 nM; with LNCaP cells it was 88 nM; in the data set on PC-3 cells (72 h after drug exposure), 161 nM; in the data set on T98G cells, 52 nM; in the data set on U87MG cells [2] it was 9 nM. Moreover, in the data set on U87MG cells [2] (HEK-293 versus U87MG), the “selectivity index against U87MG” value is approximately 900. For the same compound, the LDH release in the data set on U87MG cells [3] (1 nM) was approximately 40%; with U87MG cells [3] (10 nM), “over 60%”; in the data set on U87MG cells [3] (100 nM) it was 100%.
